The test system of the test is G3BP1 NFT2. It is filed as binding, human. The following applies: library DMS-BM; bait G3BP1 NFT2; prey CAPRIN1; AQMQGPYNFIQDSM(averaged): mean of the two overlapping peptides over the shared positions.
Turning to “AQMQGPYNFIQDSM(averaged) N8R (AQMQGPYRFIQDSM)”, the “DMS position-specific score (PSSM value) per amino-acid substitution, averaged” value amounted to 0.00733.
With “AQMQGPYNFIQDSM(averaged) A1R (RQMQGPYNFIQDSM)” the figure was 0.004419; with “AQMQGPYNFIQDSM(averaged) Q2E (AEMQGPYNFIQDSM)”, 0.09844.
“AQMQGPYNFIQDSM(averaged) A1I (IQMQGPYNFIQDSM)”: the “DMS position-specific score (PSSM value) per amino-acid substitution, averaged” value was found to be 0.00266.
In the case of “AQMQGPYNFIQDSM(averaged) P6L (AQMQGLYNFIQDSM)”, the “DMS position-specific score (PSSM value) per amino-acid substitution, averaged” value is 0.02822.
With “AQMQGPYNFIQDSM(averaged) Q11Y (AQMQGPYNFIYDSM)” the figure was 0.0642.
With “AQMQGPYNFIQDSM(averaged) S13H (AQMQGPYNFIQDHM)” the figure was 0; with “AQMQGPYNFIQDSM(averaged) N8Q (AQMQGPYQFIQDSM)”, 0.04567; with “AQMQGPYNFIQDSM(averaged) I10P (AQMQGPYNFPQDSM)”, 0.
For “AQMQGPYNFIQDSM(averaged) Q4N (AQMNGPYNFIQDSM)”, the “DMS position-specific score (PSSM value) per amino-acid substitution, averaged” value was determined as 0.005313.
The same measure for “AQMQGPYNFIQDSM(averaged) A1F (FQMQGPYNFIQDSM)”: 0.03963.
With “AQMQGPYNFIQDSM(averaged) Q4Y (AQMYGPYNFIQDSM)” the figure was 0.002959; with “AQMQGPYNFIQDSM(averaged) Q2T (ATMQGPYNFIQDSM)”, 0.03322; with “AQMQGPYNFIQDSM(averaged) Q11V (AQMQGPYNFIVDSM)”, 0.06659.
With “AQMQGPYNFIQDSM(averaged) G5Q (AQMQQPYNFIQDSM)” the figure was 0.004656; with “AQMQGPYNFIQDSM(averaged) I10G (AQMQGPYNFGQDSM)”, 0.004165; with AQMQGPYNFIQDSM(averaged) A1A, 0.1937.
For “AQMQGPYNFIQDSM(averaged) N8G (AQMQGPYGFIQDSM)”, the “DMS position-specific score (PSSM value) per amino-acid substitution, averaged” value came out at 0.001288.
With “AQMQGPYNFIQDSM(averaged) I10D (AQMQGPYNFDQDSM)” the figure was 0; with “AQMQGPYNFIQDSM(averaged) M14A (AQMQGPYNFIQDSA)”, 0.06493.
With “AQMQGPYNFIQDSM(averaged) Q4H (AQMHGPYNFIQDSM)” the figure was 0.0707; with “AQMQGPYNFIQDSM(averaged) I10R (AQMQGPYNFRQDSM)”, 0.001261; with “AQMQGPYNFIQDSM(averaged) Q11W (AQMQGPYNFIWDSM)”, 0.01601.
For the substance “AQMQGPYNFIQDSM(averaged) P6I (AQMQGIYNFIQDSM)”, the “DMS position-specific score (PSSM value) per amino-acid substitution, averaged” value was 0.007006.
The same measure for AQMQGPYNFIQDSM(averaged) G5G: 0.2298; for “AQMQGPYNFIQDSM(averaged) Q4G (AQMGGPYNFIQDSM)”: 0.08843.
The same measure for “AQMQGPYNFIQDSM(averaged) F9I (AQMQGPYNIIQDSM)”: 0; for “AQMQGPYNFIQDSM(averaged) G5T (AQMQTPYNFIQDSM)”: 0.007904.
For the substance “AQMQGPYNFIQDSM(averaged) S13G (AQMQGPYNFIQDGM)”, the “DMS position-specific score (PSSM value) per amino-acid substitution, averaged” value was found to be 0.0006715.
